Tested on: H460 cells
Experiment: Cell-competition experiment: uptake of radiolabeled glutamic acid derivative into tumor cells
Type: cell-based, human
Conditions: competitor 1 mM and 0.1 mM, 30 min incubation in PBS
Method: FIG. 7: Biological activity of (2S)-2-Amino-5-(4-cyano-3-fluorobenzyl)hexanedioic acid in a cell-competition-experiment (H460 cells, 30 min incubation with radiolabeled glutamic acid derivative in PBS-Puffer, concentration of competitor 1 mM and 0.1 mM).
The ability of (2S)-2-Amino-5-(4-cyano-3-fluorobenzyl)hexanedioic acid to compete with uptake of glutamic acid derivatives into tumor cells was examined. Therefore, tumor cells were co-incubated with a radiolabeled glutamic acid derivative and (2S)-2-Amino-5-(4-cyano-3-fluorobenzyl)hexanedioic acid. This compounds was used in large excess to the tracer. Two concentrations were examined (1 mM an 0.1 mM).

N#Cc1ccc(CC(CC[C@H](N)C(=O)O)C(=O)O)cc1F (stereo partly drawn) [(2S)-2-Amino-5-(4-cyano-3-fluorobenzyl)hexanedioic acid]
uptake of radiolabeled glutamic acid derivative into tumor cells (competition): strongly reduces the uptake

Reference: patent US9017645B2, “Homoglutamic acid derivatives” (Piramal Imaging SA, priority 2009, dated 2015)
